Experimental data taken from patent publication US20240190890A1, “MK2 INHIBITORS AND USES THEREOF” (Bristol-Myers Squibb Company, priority 2022, published 2024).

Biological target: p38a activated, mitogen-activated protein kinase-activated protein kinase 2 (MAPKAP-K2 or MK2) enzyme (Homo sapiens (Human), UniProt P49137)
Assay: MK2 Omnia continuous-read kinase assay for compound potency
Type: biochemical
Conditions: [MK-2]=0.4 nM, [ATP]=10 μM, [ST3-Sox]=10 μM; room temperature
Source text: Mitogen-Activated Protein Kinase-Activated Protein Kinase 2 Omnia® Assay for Compound Potency Assessment:
The protocol below describes a continuous-read kinase assay optimized to measure potency of compounds against p38a activated, mitogen-activated protein kinase-activated protein kinase 2 (MAPKAP-K2 or MK2) enzyme. Further details of this assay are described by Life Technologies, Carlsbad, CA on their website at the following URL: http://tools.lifetechnologies.com/content/sfs/manuals/omnia_kinase_assay_man.pdf. • [Reagent] used: • [MK-2]=0.4 nM, • [ATP]=10 μM and • [ST3-Sox]=10 μM (ATP^appKM=10 μM)
Briefly, 10× stock solutions of MK2 (PV3317, from Life Technologies), 1.13X ATP (AS001A), and Sox conjugated peptide substrate, S/T3-Sox, (KZN1031) were prepared in 1× kinase reaction buffer consisting of 20 mM Tris, pH 7.5, 5 mM MgCl2, 1 mM EGTA, 5 mM β-glycerophosphate, 5% glycerol (10× stock, KB001A) and 0.2 mM DTT (DS001A). Enzyme solution (5 μL) was added to each of DMSO ([…]) or serially diluted test compounds prepared in DMSO in a Corning (#3574) 384-well, white, non-binding surface microtiter plate (Corning, NY). Kinase reactions were started with the addition of 45 μL of the ATP-peptide substrate S/T3-Sox mix and monitored every 71 seconds for 120 minutes at λex360/λem485 in a Synergy H4 plate reader from BioTek (Winooski, VT) at room temperature.
Background signals from the no enzyme control wells were subtracted from all progress curves. The initial linear portions of the net progress curves were fit according to a linear equation to yield the slope and percentage of inhibition (% inhibition) at each compound concentration. The net progress curves obtained during the first two hours of reactions were also fit according to an ascending single-exponential equation (Eq. 1) to yield kobs values at each compound concentration. Plots of % Inhibition versus inhibitor concentrations were fit according to a dose-response equation (Eq. 2) to generate IC50 and Hill slope values while plots of kobs versus inhibitor concentration were fit according to Equation 3 (Eq. 3) to generate apparent kinact/K1 values using the GraphPad PRISM software (Version 6.00; GraphPad San Diego, CA).
where F is the fluorescence intensity from the plate reader, V0 is a constant reflecting the relationship between the instrument readout and product concentration, t is time, e is Euler's number, and kobs is the observed inactivation rate constant.
where % Inhibition is percentage of inhibition, IC50 is half maximal inhibitory concentration, [I] is the inhibitor concentration, and n is the Hill slope.
where kobs is the observed inactivation rate constant, kinact is the apparent inactivation rate constant, K1 is the apparent inhibition constant, and [I] is the inhibitor concentration. […] Potency results for the compounds tested are shown in Table 4 in the column entitled “MK2 IC50.”

Sequence of p38a activated, mitogen-activated protein kinase-activated protein kinase 2 (MAPKAP-K2 or MK2) enzyme (P49137 whole entry): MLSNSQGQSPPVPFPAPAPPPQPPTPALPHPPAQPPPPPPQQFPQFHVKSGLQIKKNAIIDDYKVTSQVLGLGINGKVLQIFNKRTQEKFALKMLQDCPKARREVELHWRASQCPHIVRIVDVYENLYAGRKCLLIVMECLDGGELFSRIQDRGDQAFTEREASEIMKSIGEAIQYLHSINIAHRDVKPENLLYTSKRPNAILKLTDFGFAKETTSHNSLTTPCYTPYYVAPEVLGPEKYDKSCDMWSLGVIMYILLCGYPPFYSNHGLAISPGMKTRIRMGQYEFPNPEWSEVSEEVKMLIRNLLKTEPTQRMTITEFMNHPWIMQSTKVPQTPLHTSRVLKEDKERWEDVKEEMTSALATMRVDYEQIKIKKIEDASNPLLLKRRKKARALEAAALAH

| SMILES | IC50 |
| --- | --- |
| C/C=C\c1ncc(F)c(-c2ccc3c(ccc4sc5c(c43)NC[C@@H](C)NC5=O)n2)n1 [Example I-46, (R,Z)-3-(5-fluoro-2-(prop-1-en-1-yl)pyrimidin-4-yl)-10-methyl-9,10,11,12-tetrahydro-8H-[1,4]diazepino[5′,6′:4,5]thieno[3,2-f]quinolin-8-one] | 765 nM |
| C=Cc1cc(-c2ccc3c(ccc4sc5c(c43)NC[C@@H](C)NC5=O)n2)cc(CO)n1 [Example I-99, (R)-3-(2-(hydroxymethyl)-6-vinylpyridin-4-yl)-10-methyl-9,10,11,12-tetrahydro-8H-[1,4]diazepino[5′,6′:4,5]thieno[3,2-f]quinolin-8-one] | 2 nM |
| C=Cc1cc(-c2ccc3c(ccc4sc5c(c43)NC[C@@H](C)NC5=O)n2)cc(C)n1 [Example I-110, (R)-10-methyl-3-(2-methyl-6-vinylpyridin-4-yl)-9,10,11,12-tetrahydro-8H-[1,4]diazepino[5′,6′:4,5]thieno[3,2-f]quinolin-8-one] | 8 nM |
| C=C(F)c1ncc(F)c(-c2ccc3c(ccc4sc5c(c43)NC[C@@H](C)NC5=O)n2)n1 [Example I-31, (R)-3-(5-fluoro-2-(1-fluorovinyl)pyrimidin-4-yl)-10-methyl-9,10,11,12-tetrahydro-8H-[1,4]diazepino[5′,6′:4,5]thieno[3,2-f]quinolin-8-one] | 24 nM |
| C#Cc1cc(-c2ccc3c(ccc4sc5c(c43)NC[C@@H](C)NC5=O)n2)ccn1 [Example I-57, (R)-3-(2-ethynylpyridin-4-yl)-10-methyl-9,10,11,12-tetrahydro-8H-[1,4]diazepino[5′,6′:4,5]thieno[3,2-f]quinolin-8-one] | 117 nM |
| C#Cc1cc(N2CCN(C)CC2)nc(-c2ccc3c(ccc4sc5c(c43)NC[C@@H](C)NC5=O)n2)n1 [Example I-61, (R)-3-(4-ethynyl-6-(4-methylpiperazin-1-yl)pyrimidin-2-yl)-10-methyl-9,10,11,12-tetrahydro-8H-[1,4]diazepino[5′,6′:4,5]thieno[3,2-f]quinolin-8-one] | 73 nM |
| C#Cc1cc(-c2ccc3c(ccc4sc5c(c43)NC[C@@H](C)NC5=O)n2)c(C)nn1 [Example I-170, (R)-3-(6-ethynyl-3-methylpyridazin-4-yl)-10-methyl-9,10,11,12-tetrahydro-8H-[1,4]diazepino[5′,6′:4,5]thieno[3,2-f]quinolin-8-one] | 18 nM |
| CCOCc1nc(Cl)cc(-c2ccc3c(ccc4sc5c(c43)NC[C@@H](C)NC5=O)n2)n1 [Example I-30, (R)-3-(6-chloro-2-(ethoxymethyl)pyrimidin-4-yl)-10-methyl-9,10,11,12-tetrahydro-8H-[1,4]diazepino[5′,6′:4,5]thieno[3,2-f]quinolin-8-one] | 16 nM |
| C[C@@H]1CNc2c(sc3ccc4nc(-c5nc(Cl)cc(N6CCN(C)CC6)n5)ccc4c23)C(=O)N1 [Example I-43, (R)-3-(4-chloro-6-(4-methylpiperazin-1-yl)pyrimidin-2-yl)-10-methyl-9,10,11,12-tetrahydro-8H-[1,4]diazepino[5′,6′:4,5]thieno[3,2-f]quinolin-8-one] | 440 nM |
| C=Cc1ncc(COC2(C)COC2)c(-c2ccc3c(ccc4sc5c(c43)NC[C@@H](C)NC5=O)n2)n1 [Example I-29, (R)-10-methyl-3-(5-(((3-methyloxetan-3-yl)oxy)methyl)-2-vinylpyrimidin-4-yl)-9,10,11,12-tetrahydro-8H-[1,4]diazepino[5′,6′:4,5]thieno[3,2-f]quinolin-8-one] | 20 nM |
| C[C@@H]1CNc2c(sc3ccc4nc(-c5nc(Cl)ncc5C(F)(F)F)ccc4c23)C(=O)N1 [Example I-4, (R)-3-(2-chloro-5-(trifluoromethyl)pyrimidin-4-yl)-10-methyl-9,10,11,12-tetrahydro-8H-[1,4]diazepino[5′,6′:4,5]thieno[3,2-f]quinolin-8-one] | 1 nM |
| C=Cc1nc(CO)cc(-c2ccc3c(ccc4sc5c(c43)NC[C@@H](C)NC5=O)n2)n1 [Example I-85, (R)-3-(6-(hydroxymethyl)-2-vinylpyrimidin-4-yl)-10-methyl-9,10,11,12-tetrahydro-8H-[1,4]diazepino[5′,6′:4,5]thieno[3,2-f]quinolin-8-one] | 11 nM |
| C#Cc1ncc(COCC)c(-c2ccc3c(ccc4sc5c(c43)NC[C@@H](C)NC5=O)n2)n1 [Example I-12, (R)-3-(5-(ethoxymethyl)-2-ethynylpyrimidin-4-yl)-10-methyl-9,10,11,12-tetrahydro-8H-[1,4]diazepino[5′,6′:4,5]thieno[3,2-f]quinolin-8-one] | 87 nM |
| C=Cc1cc(-c2ccc3c(ccc4sc5c(c43)NC[C@@H](C)NC5=O)n2)cc(CN2CCOCC2)n1 [Example I-140, (R)-10-methyl-3-(2-(morpholinomethyl)-6-vinylpyridin-4-yl)-9,10,11,12-tetrahydro-8H-[1,4]diazepino[5′,6′:4,5]thieno[3,2-f]quinolin-8-one] | 14 nM |
| C=Cc1cc(-c2ccc3c(ccc4sc5c(c43)NC[C@@H](C)NC5=O)n2)ncn1 [Example I-34, (R)-10-methyl-3-(6-vinylpyrimidin-4-yl)-9,10,11,12-tetrahydro-8H-[1,4]diazepino[5′,6′:4,5]thieno[3,2-f]quinolin-8-one] | 13 nM |

Results, then the molecule that gave them:

| IC50 | SMILES |
| --- | --- |
| 636 nM | C[C@@H]1CNc2c(sc3ccc4nc(-c5ccnc(/C=C/C(F)(F)F)c5)ccc4c23)C(=O)N1 [Example I-199, (R,E)-10-methyl-3-(2-(3,3,3-trifluoroprop-1-en-1-yl)pyridin-4-yl)-9,10,11,12-tetrahydro-8H-[1,4]diazepino[5′,6′:4,5]thieno[3,2-f]quinolin-8-one] |
| 526 nM | C#Cc1nc2c(c(-c3ccc4c(ccc5sc6c(c54)NC[C@@H](C)NC6=O)n3)n1)CN(C)CC2 [Example I-193, (R)-3-(2-ethynyl-6-methyl-5,6,7,8-tetrahydropyrido[4,3-d]pyrimidin-4-yl)-10-methyl-9,10,11,12-tetrahydro-8H-[1,4]diazepino[5′,6′:4,5]thieno[3,2-f]quinolin-8-one] |
| 10 nM | C=Cc1cc(-c2ccc3c(ccc4sc5c(c43)NC[C@@H](C)NC5=O)n2)cc(N(C)CCOC)n1 [Example I-237, (R)-3-(2-((2-methoxyethyl)(methyl)amino)-6-vinylpyridin-4-yl)-10-methyl-9,10,11,12-tetrahydro-8H-[1,4]diazepino[5′,6′:4,5]thieno[3,2-f]quinolin-8-one] |
| 106 nM | C=Cc1cc(-c2ccc3c(ccc4sc5c(c43)NC[C@@H](C)NC5=O)n2)c(F)c(CN2CCOCC2)n1 [Example I-198, (R)-3-(3-fluoro-2-(morpholinomethyl)-6-vinylpyridin-4-yl)-10-methyl-9,10,11,12-tetrahydro-8H-[1,4]diazepino[5′,6′:4,5]thieno[3,2-f]quinolin-8-one] |
| 555 nM | C#Cc1nncn1-c1ccc2c(ccc3sc4c(c32)NC[C@@H](C)NC4=O)n1 [Example I-204, (R)-3-(3-ethynyl-4H-1,2,4-triazol-4-yl)-10-methyl-9,10,11,12-tetrahydro-8H-[1,4]diazepino[5′,6′:4,5]thieno[3,2-f]quinolin-8-one] |
| 402 nM | C#Cc1cc(-c2ccc3c(ccc4sc5c(c43)NC[C@@H](C)NC5=O)n2)cc(CN2CCC(OC(F)(F)F)CC2)n1 [Example I-190, (R)-3-(2-ethynyl-6-((4-(trifluoromethoxy)piperidin-1-yl)methyl)pyridin-4-yl)-10-methyl-9,10,11,12-tetrahydro-8H-[1,4]diazepino[5′,6′:4,5]thieno[3,2-f]quinolin-8-one] |
| 153 nM | C[C@@H]1CNc2c(sc3ccc4nc(-c5nc(Cl)ncc5F)ccc4c23)C(=O)N1 [Example I-273, (R)-3-(2-chloro-5-fluoropyrimidin-4-yl)-10-methyl-9,10,11,12-tetrahydro-8H-[1,4]diazepino[5′,6′:4,5]thieno[3,2-f]quinolin-8-one] |
| 19 nM | C=C(c1cncc(-c2ccc3c(ccc4sc5c(c43)NC[C@@H](C)NC5=O)n2)n1)C(F)(F)F [Example I-225, (R)-10-methyl-3-(6-(3,3,3-trifluoroprop-1-en-2-yl)pyrazin-2-yl)-9,10,11,12-tetrahydro-8H-[1,4]diazepino[5′,6′:4,5]thieno[3,2-f]quinolin-8-one] |
